Results: PubChem BioAssay (NCI)
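The compound was tested at five concentrations on cells cultured in 96-well plates, with a 48-hour exposure period. TGI is the concentration that stops growth completely.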

Experiments:
Experiment in all cases: growth of human tumour cells (NCI), 48 h
OVCAR-3 ovarian = system: OVCAR-3 ovarian
UO-31 renal = system: UO-31 renal
UACC-62 melanoma = system: UACC-62 melanoma
KM12 colon = system: KM12 colon
RXF 393 renal = system: RXF 393 renal
EKVX NSCLC = system: EKVX NSCLC
NCI-H522 lung = system: NCI-H522 lung
U251 CNS = system: U251 CNS
HCT-116 colon = system: HCT-116 colon
SF-268 CNS = system: SF-268 CNS
SN12C renal = system: SN12C renal
K-562 leukemia = system: K-562 leukemia
HOP-92 NSCLC = system: HOP-92 NSCLC
NCI-H23 lung = system: NCI-H23 lung
A549 NSCLC = system: A549 NSCLC
HCT-15 colon = system: HCT-15 colon
COLO 205 colon = system: COLO 205 colon
HOP-62 NSCLC = system: HOP-62 NSCLC
RPMI-8226 leukemia = system: RPMI-8226 leukemia
MOLT-4 leukemia = system: MOLT-4 leukemia

Cc1cc(S(N)(=O)=O)c(S/C(=N\Nc2ccc([N+](=O)[O-])cc2)c2ccc(Cl)cc2)cc1Cl
TGI (OVCAR-3 ovarian): 3.85 µM | TGI (UO-31 renal): 22 µM | TGI (UACC-62 melanoma): 20.2 µM | TGI (KM12 colon): 4.15 µM | TGI (RXF 393 renal): 3.49 µM | TGI (EKVX NSCLC): 28.3 µM | TGI (NCI-H522 lung): 11.5 µM | TGI (U251 CNS): 5.41 µM | TGI (HCT-116 colon): > 100 µM | TGI (SF-268 CNS): 6.58 µM | TGI (SN12C renal): 10.9 µM | TGI (K-562 leukemia): > 100 µM | TGI (HOP-92 NSCLC): 5.4 µM | TGI (NCI-H23 lung): 4.91 µM | TGI (A549 NSCLC): 7.48 µM | TGI (HCT-15 colon): 77.9 µM | TGI (COLO 205 colon): > 100 µM | TGI (HOP-62 NSCLC): > 100 µM | TGI (RPMI-8226 leukemia): 28.3 µM | TGI (MOLT-4 leukemia): > 100 µM

COc1cccc(NC(=O)N/C(=C/c2ccc(N(CCC#N)CCC#N)cc2)NC(=O)c2cc([N+](=O)[O-])ccc2Cl)c1
TGI (OVCAR-3 ovarian): > 100 µM | TGI (UO-31 renal): > 100 µM | TGI (UACC-62 melanoma): > 100 µM | TGI (KM12 colon): > 100 µM | TGI (RXF 393 renal): > 100 µM | TGI (EKVX NSCLC): > 100 µM | TGI (NCI-H522 lung): > 100 µM | TGI (U251 CNS): > 100 µM | TGI (HCT-116 colon): > 100 µM | TGI (SF-268 CNS): > 100 µM | TGI (SN12C renal): > 100 µM | TGI (K-562 leukemia): > 100 µM | TGI (HOP-92 NSCLC): > 100 µM | TGI (NCI-H23 lung): > 100 µM | TGI (A549 NSCLC): > 100 µM | TGI (HCT-15 colon): > 100 µM | TGI (COLO 205 colon): > 100 µM | TGI (HOP-62 NSCLC): > 100 µM | TGI (RPMI-8226 leukemia): > 100 µM | TGI (MOLT-4 leukemia): > 100 µM

O=S(=O)(O)c1ccc(N=Nc2ccc(N=Nc3ccc(/C=C/c4ccc(N=[N+]([O-])c5ccc(/C=C/c6ccc(N=Nc7ccc(N=Nc8ccc(S(=O)(=O)O)cc8)c8ccccc78)cc6S(=O)(=O)O)c(S(=O)(=O)O)c5)cc4S(=O)(=O)O)c(S(=O)(=O)O)c3)c3ccccc23)cc1
TGI (OVCAR-3 ovarian): > 100 µM | TGI (UO-31 renal): > 100 µM | TGI (UACC-62 melanoma): > 100 µM | TGI (KM12 colon): > 100 µM | TGI (RXF 393 renal): > 100 µM | TGI (EKVX NSCLC): > 100 µM | TGI (NCI-H522 lung): 99.7 µM | TGI (U251 CNS): > 100 µM | TGI (HCT-116 colon): > 100 µM | TGI (SF-268 CNS): > 100 µM | TGI (SN12C renal): > 100 µM | TGI (K-562 leukemia): > 100 µM | TGI (HOP-92 NSCLC): > 100 µM | TGI (NCI-H23 lung): > 100 µM | TGI (A549 NSCLC): > 100 µM | TGI (HCT-15 colon): > 100 µM | TGI (COLO 205 colon): > 100 µM | TGI (HOP-62 NSCLC): > 100 µM | TGI (RPMI-8226 leukemia): > 100 µM | TGI (MOLT-4 leukemia): > 100 µM
